Measured values: patent US20230172969A1, “Ophthalmic Composition” (Rohto Pharmaceutical Co., Ltd., priority 2020, published 2023)

System: Japanese white rabbits
Test: Dryness stress test using rabbits (methylene blue staining of corneas)
Format: in vivo, rabbit
Conditions: eyelids open 3 hours, 100 μL per eye, 0.5% w/v or 3% w/v in physiological saline, compared with sodium chondroitin sulfate around 20,000, p<0.01
Method: Sodium chondroitin sulfate having a weight average molecular weight of around 20,000 (Maruha Nichiro Corporation; sodium chondroitin sulfate in Japanese Pharmaceutical Codex) or sodium chondroitin sulfate having a weight average molecular weight of around 40,000 (SEIKAGAKU CORPORATION; grade N-K) was dissolved in a physiological saline solution (Otsuka Pharmaceutical Factory, Inc.) to 0.5% w/v or 3% w/v separately to prepare test substances.
Rabbits (Japanese white rabbits (KITAYAMA LABES CO., LTD.)) classified into five groups (n=5) according to the method of Nagano et al. (Journal of the Eye, 13(2), 267-270, 1996) were put under general anesthesia, rings obtained by cutting finger portions of gloves into a ring form were then installed on the right and left eyeballs, and the eyelids were opened forcedly. […] The corneas were excised from the eye surfaces, methylene blue dye was then extracted, and the absorbance at 660 nm was measured using the microplate reader Multiskan GO (Thermo Fisher Scientific K.K.). Since a cornea lesion is formed by eye dryness, and the amount of the dye attached to the cornea surfaces increases, it can be estimated that as the absorbance value increases, the eyes become dryer.

With sodium chondroitin sulfate the “absorbance at 660 nm (methylene blue dye extracted from corneas)” value was “remarkably low”.
